From patent US8445636B2, “Antimicrobial and anticancer lipopeptides” (Yeda Research & Development Co. Ltd., priority 2003, dated 2013)
In brackets after ≈: the same amount, converted by molar mass. Like-named read-outs stand apart in the source and are kept apart here. Non-standard residues stand in square brackets, D forms with d. Residues, ends and D or L forms follow the SMILES beside them. *: point of attachment. Palmitoyl = CCCCCCCCCCCCCCCC(=O)*; Myristoyl = CCCCCCCCCCCCCC(=O)*; Undecanoyl = CCCCCCCCCCC(=O)*; Lauroyl = CCCCCCCCCCCC(=O)*

What was measured:
Format in all cases: cell-based
[1] = test system: Aspergillus fumigatus ATCC 26430; test: microbe, parasite or virus in culture
[2] = test system: Cryptococcus neoformans ATCC MYA-422; test: microbe, parasite or virus in culture; conditions: read-out: Minimal Inhibitory Concentration, Cyrptococcus neoformans (ATCC MYA-422)
[3] = test system: Pseudomonas aeruginosa ATCC 27853
Procedure: (§1) The antibacterial activity of the lipopeptides was examined in sterile 96-well plates (Nunc F96 microtiter plates) in a final volume of 100 μl as follows: Aliquots (50 μl) of a suspension containing bacteria at concentration of 1×10^6 Colony-Forming Units (CFU)/ml in culture LB (Lauria broth) medium (pH 7.4 or pH 5.5) were added to 50 μl of water containing the lipopeptide in serial 2-fold dilutions in water. Adjustment of the pH was done by diluted solutions of HCl and NaOH Inhibition of growth was determined by measuring the absorbance at 600 nm with a Microplate autoreader E1309 (Bio-Tek Instruments), after an incubation time of 18-20 h at 37° C. Antibacterial activities were expressed as the minimal inhibitory concentration (MIC), the concentration at which 100% inhibition of growth was observed after 18-20 h of incubation. The bacteria used were: Escherichia coli ATCC 25922, Acinetobacter baumannii ATCC 19606, Pseudomonas aeruginosa ATCC 27853, Staphylococcus aureus ATCC 6538P, Enterococcus faecalis ATCC 29212, Enterobacter cloacae ATCC 49141. The antibacterial activity of lipopeptides was also examined against resistant bacteria: methicilin-resistant Staphylococcus aureus (MRSA) ATCC 700698 and vancomycin-resistant Enterococcus faecium (VRE) ATCC 700221. If not indicated otherwise, the bacterial growth was detected at pH 7.4.

[4] = test system: Acinetobacter baumannii ATCC 19606; conditions: ATCC 19606, pH 7.4
Procedure: as §1

[5] = test system: Staphylococcus aureus ATCC 6538P
Procedure: as §1

E. coli D21 = conditions: D21, pH 7.4
[6] = test system: Candida albicans ATCC 10231; test: microbe, parasite or virus in culture; conditions: for MIC: read-out: Minimal Inhibitory Concentration, Candida Albicans (ATCC 10231)
Procedure: (§2) The antifungal activity of the lipopeptides was examined in sterile 96-well plates (Nunc F96 microtiter plates) in a final volume of 200 μL as follows: 100 µl of a suspension containing fungi at a concentration of 1×10^4 Colony-Forming Units (CFU)/ml in culture medium (RPMI 1640, 0.165 M MOPS with L-glutamine, without NaHCO3) at pH 7.4 or pH 5.5 (adjustment of the pH was done by diluted solutions of HCl and NaOH) were added to 100 μl of water containing the peptide in serial 2-fold dilutions in water. The fungi were incubated in the presence of the lipopeptides for 24-48 h at 35° C. in a Binder KB115 incubator under agitation. Growth inhibition was determined by measuring the absorbance at 620 nm with a Microplate autoreader E1309 (Bio-Tek Instruments). Antifungal activity is expressed as the minimal inhibitory concentration (MIC), the concentration at which 100% inhibition of fungi growth was observed after the incubation time mentioned above. The fungi used were: Aspergillus niger ATCC 9642, Candida albicans ATCC 10231 and Cryptococcus neoformans ATCC 66031. If not indicated otherwise, the fungi growth was detected at pH 7.4.

[7] = test system: Escherichia coli ATCC 25922; conditions: for Minimal Inhibitory Concentration, E. coli: ATCC 25922, pH 7.4
Procedure: as §1

B. subtilis ATCC 6051 = conditions: ATCC 6051
[8] = test system: Enterococcus faecalis ATCC 29212; conditions: ATCC 29212, pH 7.4
Procedure: as §1

[9] = test system: methicilin-resistant Staphylococcus aureus (MRSA) ATCC 700698; conditions: for Minimal Inhibitory Concentration, S. aureus (MRSA): ATCC 700698, pH 7.4
Procedure: as §1

[10] = test system: Enterobacter cloacae ATCC 49141; conditions: ATCC 49141, pH 7.4
Procedure: as §1

[11] = test system: Cryptococcus neoformans ATCC 66031; test: microbe, parasite or virus in culture; conditions: ATCC 66031, pH 7.4
Procedure: as §2

[12] = test system: human red blood cells (hRBC); test: Hemolytic activity, release of hemoglobin at 540 nm; conditions: up to a concentration of 25 μM; human red blood cells (FIGS. 6-7)
Procedure: Fresh human red blood cells (hRBC) with EDTA were rinsed 3 times with PBS (35 mM phosphate buffer/0.15 M NaCl, pH 7.3) by centrifugation for 10 min at 800 g and resuspended in PBS. Peptides dissolved in PBS were then added to 50 μl of a solution of the stock hRBC in PBS to reach a final volume of 100 μl (final erythrocyte concentration, 4% v/v). The resulting suspension was incubated under agitation for 60 min at 37° C. The samples were then centrifuged at 800×g for 10 min. Release of hemoglobin was monitored by measuring the absorbance of the supernatant at 540 nm. Controls for zero hemolysis (blank) and 100% hemolysis consisted of hRBC suspended in PBS and Triton 1%, respectively.

Structure (SMILES) | Minimal Inhibitory Concentration, A. fumigatus ATCC 26430 ([1]; ATCC 26430, pH 7.4) | Minimal Inhibitory Concentration, P. Aeruginosa ([3]; ATCC 27853, pH 7.4) | Minimal Inhibitory Concentration, E. faecalis [8] | Minimal Inhibitory Concentration, S. aureus (MRSA) [9] | Minimal Inhibitory Concentration, E. cloacae [10] | Minimal Inhibitory Concentration, E. coli [7] | Minimal Inhibitory Concentration, S. aureus ([5]; ATCC 6538, pH 7.4) | Minimal Inhibitory Concentration, C. neoformans ATCC 66031 [11] | Minimal Inhibitory Concentration, C. albicans ATCC 10231 ([6]; ATCC 10231, pH 7.4) | Minimal Inhibitory Concentration, A. Baumaannii [4] | further results
CCCCCCCCCCCCCCCC(=O)N[C@@H](CCCNC(=N)N)C(=O)N[C@@H](CC(C)C)C(=O)N[C@H](CC(C)C)C(=O)N[C@@H](CCCNC(=N)N)C(N)=O [PA-RLLR, Palmitoyl-Arg-Leu-D-Leu-Arg-NH2] (Palmitoyl-RL[dL]R-NH2) |  |  |  |  |  |  |  |  |  |  | MIC ([1]; ATCC 26430, pH 7.4, read-out: Minimal Inhibitory Concentration, Aspergillus Fomigatus (ATCC 26430)): 6.25 µM (≈ 4.96 µg/mL); MIC ([2]; ATCC MYA-422, pH 7.4): 1.56 µM (≈ 1.24 µg/mL); Minimal Inhibitory Concentration, P. aeruginosa ATCC 27853 ([3]; ATCC 27853, pH 7.4): >100 µM; Minimal Inhibitory Concentration, A. baumannii ATCC 19606 [4]: >100 µM; Minimal Inhibitory Concentration, S. aureus ATCC 6538P ([5]; ATCC 6538, pH 7.4): 25 µM; Minimal Inhibitory Concentration, E. coli-D21 (E. coli D21): >100 µM; MIC ([6]; ATCC 10231, pH 7.4): 25 µM (≈ 19.9 µg/mL)
CC[C@H](C)[C@H](NC(=O)CN)C(=O)NCC(=O)N[C@@H](CCCCN)C(=O)N[C@@H](Cc1ccccc1)C(=O)N[C@H](CC(C)C)C(=O)N[C@@H](Cc1c[nH]cn1)C(=O)N[C@@H](CO)C(=O)N[C@@H](C)C(=O)N[C@H](CCCCN)C(=O)N[C@@H](CCCCN)C(=O)N[C@@H](Cc1c[nH]c2ccccc12)C(=O)NCC(=O)N[C@@H](CCCCN)C(=O)N[C@@H](C)C(=O)N[C@H](Cc1ccccc1)C(=O)N[C@H](C(=O)NCC(=O)N[C@H](CCC(=O)O)C(=O)N[C@H](C(=O)N[C@@H](CCSC)C(=O)N[C@@H](CC(N)=O)C(=O)N[C@@H](CO)C(N)=O)[C@@H](C)CC)C(C)C [[D]4magainin, Gly-Ile-Gly-Lys-Phe-D-Leu-His-Ser-Ala-D-Lys-Lys-Trp-Gly-Lys-Ala-D-Phe-Val-Gly-D-Glu-Ile-Met-Asn-Ser-NH2, reference compound] (H-GIGKF[dL]HSA[dK]KWGKA[dF]VG[dE]IMNS-NH2; N-terminus assumed) |  |  |  |  |  |  |  |  |  |  | Minimal Inhibitory Concentration, Aspergillus fumigatus (ATCC 26430) ([1]; ATCC 26430): >50 µM; MIC ([2]; Table 17, D-magainin analog, mean of 3 experiments, standard deviation of 25%): >50 µM; Minimal Inhibitory Concentration, P. aeruginosa ATCC 27853 ([3]; ATCC 27853): >50 µM; Minimal Inhibitory Concentration, E. coli (ATCC 25922) ([7]; ATCC 25922): >50 µM; Minimal Inhibitory Concentration, S. aureus ATCC 6538P ([5]; ATCC 6538): >50 µM; Minimal Inhibitory Concentration, B. subtilis (ATCC 6051) (B. subtilis ATCC 6051): 50 µM; MIC ([6]; ATCC 10231): >50 µM
CCCCCCCCCCCCCC(=O)N[C@H](CCCCN)C(=O)NCC(=O)NCC(=O)NCC(=O)N[C@H](CCCCN)C(=O)NCC(=O)NCC(=O)NCC(=O)N[C@H](CCCCN)C(=O)NCC(=O)NCC(=O)N[C@H](CCCCN)C(N)=O [lipopeptide 1, (CH3—(CH2)12—CO—)-D-Lys-Gly-Gly-Gly-D-Lys-Gly-Gly-Gly-D-Lys-Gly-Gly-D-Lys-NH2] (Myristoyl-[dK]GGG[dK]GGG[dK]GG[dK]-NH2) | 6.25 µM | 6.25 µM | 3.125 µM | 6.25 µM | 3.125 µM | 12.5 µM | 6.25 µM | 6.25 µM | 3.125 µM |  | 
CCCCCCCCCCCCCCCC(=O)N[C@@H](CCCCN)C(=O)NCC(=O)NCC(=O)NCC(=O)N[C@@H](CCCCN)C(=O)NCC(=O)NCC(=O)NCC(=O)N[C@@H](CCCCN)C(=O)NCC(=O)NCC(=O)N[C@@H](CCCCN)C(N)=O [lipopeptide 4, (CH3—(CH2)14—CO—)-Lys-Gly-Gly-Gly-Lys-Gly-Gly-Gly-Lys-Gly-Gly-Lys-NH2] (Palmitoyl-KGGGKGGGKGGK-NH2) | 6.25 µM | 6.25 µM | 12.5 µM | 12.5 µM | 50 µM | 25 µM | 12.5 µM | 1.56 µM | 3.125 µM | 25 µM | 
CCCCCCCCCCC(=O)N[C@@H](CCCCN)C(=O)N[C@@H](CC(C)C)C(=O)N[C@H](CC(C)C)C(=O)N[C@H](CC(C)C)C(=O)N[C@@H](CCCCN)C(=O)N[C@@H](CC(C)C)C(=O)N[C@@H](CC(C)C)C(=O)N[C@H](CC(C)C)C(=O)N[C@@H](CCCCN)C(=O)N[C@H](CC(C)C)C(=O)N[C@@H](CC(C)C)C(=O)N[C@@H](CCCCN)C(N)=O [lipopeptide 10, (CH3—(CH2)9—CO—)-Lys-Leu-D-Leu-D-Leu-Lys-Leu-Leu-D-Leu-Lys-D-Leu-Leu-Lys-NH2] (Undecanoyl-KL[dL][dL]KLL[dL]K[dL]LK-NH2) | 6.25 µM | 3.25 µM | 3.125 µM | 3.125 µM | 1.56 µM | 6.25 µM | 3.125 µM | 1.56 µM | 3.125 µM | 3.125 µM | activity against MRSA ([9]; in words, summary of Table 4): highly active
CCCCCCCCCCCC(=O)N[C@H](CC(C)C)C(=O)N[C@@H](Cc1cnc[nH]1)C(=O)N[C@@H](Cc1cnc[nH]1)C(=O)N[C@H](CC(C)C)C(=O)N[C@H](CC(C)C)C(=O)N[C@@H](Cc1cnc[nH]1)C(=O)N[C@@H](Cc1cnc[nH]1)C(=O)N[C@H](CC(C)C)C(=O)N[C@H](CC(C)C)C(=O)N[C@@H](Cc1cnc[nH]1)C(=O)N[C@@H](Cc1cnc[nH]1)C(=O)N[C@H](CC(C)C)C(N)=O [lipopeptide 26, (CH3-(CH2)10-CO-)-D-Leu-His-His-D-Leu-D-Leu-His-His-D-Leu-D-Leu-His-His-D-Leu-NH2] (Lauroyl-[dL]HH[dL][dL]HH[dL][dL]HH[dL]-NH2) |  |  |  |  |  |  |  |  |  |  | hemolytic activity [12]: do not exert hemolytic activity
